Measured values as given in PMC6332508, “A Promising PET Tracer for Imaging of α7 Nicotinic Acetylcholine Receptors in the Brain: Design, Synthesis, and in Vivo Evaluation of a Dibenzothiophene-Based Radioligand” (Molecules, 2015).
Where two headings read alike, the source gives them in different places.

Columns and labels:
human α7 nAChR = molecular target: T1, human α7 nAChR (Homo sapiens, UniProt P36544); experiment: Radioligand displacement at human α7 nAChR, [3H]methyllycaconitine, SH-SY5Y cells; assay type: binding
T1 construct: expressed in transfected cells; host or cells: SH-SY5Y
T1 sequence (P36544 23-502): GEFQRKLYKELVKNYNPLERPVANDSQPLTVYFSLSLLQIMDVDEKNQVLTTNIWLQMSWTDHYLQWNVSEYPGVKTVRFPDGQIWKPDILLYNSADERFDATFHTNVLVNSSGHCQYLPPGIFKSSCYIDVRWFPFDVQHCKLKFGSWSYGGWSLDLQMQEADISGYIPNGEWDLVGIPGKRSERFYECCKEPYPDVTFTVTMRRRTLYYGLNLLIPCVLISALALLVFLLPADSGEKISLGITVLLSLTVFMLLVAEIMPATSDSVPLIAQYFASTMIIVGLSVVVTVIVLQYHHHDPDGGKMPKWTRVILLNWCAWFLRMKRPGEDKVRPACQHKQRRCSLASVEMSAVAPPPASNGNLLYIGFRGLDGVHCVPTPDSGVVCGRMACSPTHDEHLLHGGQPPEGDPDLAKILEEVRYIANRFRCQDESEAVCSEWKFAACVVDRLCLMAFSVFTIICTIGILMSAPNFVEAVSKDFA

human α4β2 nAChR = molecular target: T2, human α4β2 nAChR (Homo sapiens, UniProt P17787+P43681); experiment: Radioligand displacement at human α4β2 nAChR, [3H]epibatidine, HEK293 cells; assay type: binding; conditions: stably transfected HEK-293 cells, [3H]epibatidine; read-out: Affinity (Ki in nM) hα4β2
T2 construct: expressed in transfected cells; host or cells: HEK293
Protocol: (§1) The affinity of the test compounds for human α4β2 and α3β4 nAChR was determined as described above. In brief, HEK293 cells stably expressing human α4β2 or α3β4 nAChR [66] were cultured. […] Nonspecific binding was determined in the presence of 300 μM (−)-nicotine tartrate. Incubation of the samples, separation of free from receptor-bound radioligand, and data evaluation were performed as described above.

human α3β4 nAChR = molecular target: T3, human α3β4 nAChR (Homo sapiens, UniProt P30926+P32297); experiment: Radioligand displacement at human α3β4 nAChR, [3H]epibatidine, HEK293 cells; assay type: binding; conditions: stably transfected HEK-293 cells, [3H]epibatidine; read-out: Affinity (Ki in nM) hα3β4
T3 construct: expressed in transfected cells; host or cells: HEK293
T3 sequence (P32297 32-505): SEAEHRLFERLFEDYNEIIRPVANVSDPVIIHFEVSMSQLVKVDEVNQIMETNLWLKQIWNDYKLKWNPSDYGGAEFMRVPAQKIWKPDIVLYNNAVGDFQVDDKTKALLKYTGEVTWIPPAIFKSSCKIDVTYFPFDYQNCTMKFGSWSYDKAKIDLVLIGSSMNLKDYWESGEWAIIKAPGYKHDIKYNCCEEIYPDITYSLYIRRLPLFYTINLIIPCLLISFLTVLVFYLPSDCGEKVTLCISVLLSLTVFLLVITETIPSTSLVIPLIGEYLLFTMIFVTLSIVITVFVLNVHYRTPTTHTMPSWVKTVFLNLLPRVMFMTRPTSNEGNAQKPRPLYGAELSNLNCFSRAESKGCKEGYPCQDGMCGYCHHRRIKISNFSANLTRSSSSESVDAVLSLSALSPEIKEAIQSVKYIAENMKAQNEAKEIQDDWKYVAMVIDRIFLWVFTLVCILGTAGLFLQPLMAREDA
T3 sequence (P30926 22-498): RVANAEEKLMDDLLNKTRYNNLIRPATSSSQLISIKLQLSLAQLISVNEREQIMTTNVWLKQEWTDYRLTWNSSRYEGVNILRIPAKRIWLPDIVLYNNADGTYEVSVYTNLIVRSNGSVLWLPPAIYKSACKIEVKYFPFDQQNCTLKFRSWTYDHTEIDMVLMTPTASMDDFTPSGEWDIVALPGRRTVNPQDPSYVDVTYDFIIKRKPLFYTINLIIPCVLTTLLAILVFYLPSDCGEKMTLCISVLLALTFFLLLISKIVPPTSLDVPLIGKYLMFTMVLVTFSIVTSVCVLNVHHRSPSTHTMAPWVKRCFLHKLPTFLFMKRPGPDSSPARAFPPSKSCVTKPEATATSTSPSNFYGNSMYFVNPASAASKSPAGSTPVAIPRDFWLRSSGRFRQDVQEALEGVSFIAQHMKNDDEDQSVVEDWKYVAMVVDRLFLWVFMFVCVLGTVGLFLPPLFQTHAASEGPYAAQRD
Protocol: as §1

rat α6β2* nAChR = rat α6β2* nAChR (Rattus norvegicus, UniProt P12390+P43143); experiment: [3H]epibatidine binding to antibody-immobilized native rat α6β2* nAChR from striatum; conditions: read-out: Affinity (Ki in nM) rα6β2*, immunoimmobilization with anti-rα6 antibody, [3H]epibatidine 0.1 nM
Chain of rat α6β2* nAChR (P43143 31-493): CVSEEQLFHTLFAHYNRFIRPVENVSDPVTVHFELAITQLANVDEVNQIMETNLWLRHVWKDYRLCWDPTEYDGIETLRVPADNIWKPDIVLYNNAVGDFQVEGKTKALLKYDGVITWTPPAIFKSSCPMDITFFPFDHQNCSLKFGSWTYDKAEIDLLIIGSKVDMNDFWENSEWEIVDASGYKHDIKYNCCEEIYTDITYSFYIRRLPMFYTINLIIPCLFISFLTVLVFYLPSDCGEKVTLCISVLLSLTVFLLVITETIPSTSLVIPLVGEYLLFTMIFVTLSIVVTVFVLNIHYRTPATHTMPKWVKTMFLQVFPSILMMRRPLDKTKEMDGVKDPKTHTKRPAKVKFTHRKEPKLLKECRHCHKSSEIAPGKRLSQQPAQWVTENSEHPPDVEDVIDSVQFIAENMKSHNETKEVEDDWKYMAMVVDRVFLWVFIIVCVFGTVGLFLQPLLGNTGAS
Chain of rat α6β2* nAChR (P12391 31-464, further chain): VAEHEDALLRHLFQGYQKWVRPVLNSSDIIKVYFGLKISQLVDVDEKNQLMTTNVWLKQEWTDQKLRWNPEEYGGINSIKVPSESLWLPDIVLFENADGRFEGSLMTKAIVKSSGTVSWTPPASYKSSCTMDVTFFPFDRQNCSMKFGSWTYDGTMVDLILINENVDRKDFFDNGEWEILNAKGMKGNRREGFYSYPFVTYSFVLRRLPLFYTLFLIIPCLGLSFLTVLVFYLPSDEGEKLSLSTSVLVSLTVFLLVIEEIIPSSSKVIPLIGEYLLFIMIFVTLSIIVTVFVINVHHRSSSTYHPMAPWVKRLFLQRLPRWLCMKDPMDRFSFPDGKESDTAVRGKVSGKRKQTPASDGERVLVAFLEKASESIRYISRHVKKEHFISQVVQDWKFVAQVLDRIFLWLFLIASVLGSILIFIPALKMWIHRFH
Chain of rat α6β2* nAChR (P12390 25-500): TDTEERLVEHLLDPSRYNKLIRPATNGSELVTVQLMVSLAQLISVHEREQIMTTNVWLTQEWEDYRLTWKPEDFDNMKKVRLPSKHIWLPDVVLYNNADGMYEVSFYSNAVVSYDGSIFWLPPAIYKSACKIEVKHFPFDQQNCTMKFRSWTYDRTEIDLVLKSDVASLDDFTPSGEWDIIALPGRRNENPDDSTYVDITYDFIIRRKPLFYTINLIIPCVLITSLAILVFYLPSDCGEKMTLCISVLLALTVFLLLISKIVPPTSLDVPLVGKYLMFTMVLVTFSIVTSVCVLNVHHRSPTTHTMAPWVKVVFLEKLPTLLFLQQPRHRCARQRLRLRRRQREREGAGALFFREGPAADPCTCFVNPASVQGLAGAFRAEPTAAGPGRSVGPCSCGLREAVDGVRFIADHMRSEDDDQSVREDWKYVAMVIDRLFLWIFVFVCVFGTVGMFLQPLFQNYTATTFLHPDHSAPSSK
Protocol: The specificity of the anti-α6 antibody was tested as described. The receptors were prepared and immobilized as previously described by the subunit-specific antibody. […] Incubations were performed in a buffer containing 50 mM Tris-HCl, pH 7, 150 mM NaCl, 5 mM KCl, 1 mM MgCl2, 2.5 mM CaCl2, 2 mg∙mL^−1 BSA, and 0.05% Tween 20. Specific ligand binding was defined as total binding minus the binding in the presence of 100 nM (±)-epibatidine dihydrochloride hydrate.
The experimental data obtained from the binding experiments were analyzed by means of a non-linear least square procedure using the LIGAND program. The Ki values of the test compounds were also determined by means of the LIGAND program by simultaneously fitting the data obtained from three to five independent saturation and competition binding experiments.

human 5-HT3 receptor = molecular target: T4, human 5-HT3 receptor (Homo sapiens, UniProt P46098); experiment: Radioligand binding at human 5-HT3 receptor, [3H]GR65630 (Eurofins Panlabs)
T4 construct: host or cells: HEK-293
T4 sequence (P46098 24-478): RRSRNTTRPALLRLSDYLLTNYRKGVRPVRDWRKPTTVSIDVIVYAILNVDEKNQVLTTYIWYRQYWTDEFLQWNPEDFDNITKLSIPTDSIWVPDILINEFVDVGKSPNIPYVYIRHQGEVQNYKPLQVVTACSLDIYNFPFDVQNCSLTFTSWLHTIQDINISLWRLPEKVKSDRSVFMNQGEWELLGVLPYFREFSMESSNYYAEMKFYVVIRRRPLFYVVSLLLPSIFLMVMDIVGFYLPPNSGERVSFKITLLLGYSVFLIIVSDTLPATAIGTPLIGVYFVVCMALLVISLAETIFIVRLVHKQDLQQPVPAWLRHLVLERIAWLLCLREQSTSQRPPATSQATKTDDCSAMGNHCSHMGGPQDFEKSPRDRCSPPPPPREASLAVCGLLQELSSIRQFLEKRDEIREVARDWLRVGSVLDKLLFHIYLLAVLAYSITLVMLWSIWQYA

α1 nAChR = molecular target: T5, α1 nAChR (Homo sapiens, UniProt P02708+P07510+Q07001); experiment: Off-target radioligand binding assay, α1 nAChR; conditions: 1 μM; significant at ≥50% inhibition or stimulation
T5 construct: Eurofins Panlabs, Inc
T5 sequence (P02708 21-457): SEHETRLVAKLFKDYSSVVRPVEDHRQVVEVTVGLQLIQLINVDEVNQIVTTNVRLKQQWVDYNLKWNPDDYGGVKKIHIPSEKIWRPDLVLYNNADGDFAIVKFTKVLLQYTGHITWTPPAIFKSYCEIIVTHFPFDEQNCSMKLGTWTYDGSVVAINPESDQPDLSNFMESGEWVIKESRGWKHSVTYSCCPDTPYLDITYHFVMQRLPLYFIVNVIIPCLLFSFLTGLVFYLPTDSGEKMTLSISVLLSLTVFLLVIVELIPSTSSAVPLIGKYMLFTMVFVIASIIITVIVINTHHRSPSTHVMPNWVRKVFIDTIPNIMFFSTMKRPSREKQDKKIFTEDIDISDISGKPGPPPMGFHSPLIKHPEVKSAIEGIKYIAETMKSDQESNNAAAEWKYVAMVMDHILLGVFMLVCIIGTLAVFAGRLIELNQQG
T5 sequence (P11230 24-501 partner): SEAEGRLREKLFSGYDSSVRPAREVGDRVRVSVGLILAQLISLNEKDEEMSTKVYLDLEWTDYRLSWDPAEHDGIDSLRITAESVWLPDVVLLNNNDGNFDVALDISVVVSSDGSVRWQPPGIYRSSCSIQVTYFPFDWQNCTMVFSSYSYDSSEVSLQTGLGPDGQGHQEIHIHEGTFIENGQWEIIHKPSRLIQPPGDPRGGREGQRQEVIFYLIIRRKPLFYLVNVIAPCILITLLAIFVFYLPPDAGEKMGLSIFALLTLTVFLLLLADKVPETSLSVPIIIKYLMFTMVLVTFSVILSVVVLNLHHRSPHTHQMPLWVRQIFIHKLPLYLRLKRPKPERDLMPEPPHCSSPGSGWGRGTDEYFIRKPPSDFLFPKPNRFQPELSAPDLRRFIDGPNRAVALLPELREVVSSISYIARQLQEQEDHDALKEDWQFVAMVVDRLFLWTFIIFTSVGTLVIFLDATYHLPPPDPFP
T5 sequence (Q07001 22-517): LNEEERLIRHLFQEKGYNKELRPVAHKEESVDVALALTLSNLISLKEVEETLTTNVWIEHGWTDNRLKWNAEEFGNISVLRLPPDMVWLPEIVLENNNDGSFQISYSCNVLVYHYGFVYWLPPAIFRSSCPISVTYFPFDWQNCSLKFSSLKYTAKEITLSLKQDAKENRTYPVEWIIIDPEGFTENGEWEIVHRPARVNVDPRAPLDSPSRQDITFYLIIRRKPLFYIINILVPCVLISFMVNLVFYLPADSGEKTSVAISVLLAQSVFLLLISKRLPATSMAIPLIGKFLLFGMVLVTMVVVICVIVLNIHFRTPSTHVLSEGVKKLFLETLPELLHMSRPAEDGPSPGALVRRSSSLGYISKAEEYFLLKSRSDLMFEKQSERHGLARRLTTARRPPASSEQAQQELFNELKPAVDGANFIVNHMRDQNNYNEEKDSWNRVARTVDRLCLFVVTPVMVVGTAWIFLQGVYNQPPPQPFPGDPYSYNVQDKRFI
T5 sequence (P07510 23-517): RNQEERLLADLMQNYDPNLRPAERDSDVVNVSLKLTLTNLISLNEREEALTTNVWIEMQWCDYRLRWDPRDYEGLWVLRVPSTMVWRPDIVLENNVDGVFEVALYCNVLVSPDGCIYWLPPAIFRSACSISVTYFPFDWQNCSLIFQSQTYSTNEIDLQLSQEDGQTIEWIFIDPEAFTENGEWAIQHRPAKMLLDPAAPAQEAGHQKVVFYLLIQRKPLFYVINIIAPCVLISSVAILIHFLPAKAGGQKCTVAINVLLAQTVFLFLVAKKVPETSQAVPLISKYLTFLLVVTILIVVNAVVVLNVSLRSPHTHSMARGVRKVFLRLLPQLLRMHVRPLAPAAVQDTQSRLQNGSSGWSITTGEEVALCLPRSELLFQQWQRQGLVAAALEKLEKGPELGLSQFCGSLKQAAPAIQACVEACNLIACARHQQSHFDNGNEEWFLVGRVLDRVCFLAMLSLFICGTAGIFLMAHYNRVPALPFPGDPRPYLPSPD
Protocol: (§2) The activity of compound 10a was evaluated by a contract research organization (Eurofins Panlabs, Inc.). The test concentration was 1 μM and radioligand binding assays for dopamine transporter (DAT), serotonin transporter (SERT), norepinephrine transporter (NET), monoamine transporter (VMAT), choline transporter, and α1 nAChR performed according to the manufacturer’s protocols.

[1] = molecular target: T6, serotonin transporter (SERT) (Homo sapiens, UniProt P31645); experiment: Off-target radioligand binding assay, SERT; conditions: 1 μM; significant at ≥50% inhibition or stimulation
T6 construct: Eurofins Panlabs, Inc
Protocol: as §2

[2] = molecular target: T7, dopamine transporter (DAT) (Homo sapiens, UniProt Q01959); experiment: Off-target radioligand binding assay, DAT; conditions: 1 μM; significant at ≥50% inhibition or stimulation
T7 construct: Eurofins Panlabs, Inc
Protocol: as §2

[3] = molecular target: T8, norepinephrine transporter (NET) (Homo sapiens, UniProt P23975); experiment: Off-target radioligand binding assay, NET; conditions: 1 μM; significant at ≥50% inhibition or stimulation
T8 construct: Eurofins Panlabs, Inc
Protocol: as §2

[4] = tested on: monoamine transporter (VMAT); experiment: Off-target radioligand binding assay, VMAT; conditions: 1 μM; significant at ≥50% inhibition or stimulation
Protocol: as §2

choline transporter = molecular target: T9, choline transporter (Homo sapiens, UniProt Q9GZV3); experiment: Off-target radioligand binding assay, choline transporter; conditions: 1 μM; significant at ≥50% inhibition or stimulation
T9 construct: Eurofins Panlabs, Inc
T9 sequence (Q9GZV3 1-580): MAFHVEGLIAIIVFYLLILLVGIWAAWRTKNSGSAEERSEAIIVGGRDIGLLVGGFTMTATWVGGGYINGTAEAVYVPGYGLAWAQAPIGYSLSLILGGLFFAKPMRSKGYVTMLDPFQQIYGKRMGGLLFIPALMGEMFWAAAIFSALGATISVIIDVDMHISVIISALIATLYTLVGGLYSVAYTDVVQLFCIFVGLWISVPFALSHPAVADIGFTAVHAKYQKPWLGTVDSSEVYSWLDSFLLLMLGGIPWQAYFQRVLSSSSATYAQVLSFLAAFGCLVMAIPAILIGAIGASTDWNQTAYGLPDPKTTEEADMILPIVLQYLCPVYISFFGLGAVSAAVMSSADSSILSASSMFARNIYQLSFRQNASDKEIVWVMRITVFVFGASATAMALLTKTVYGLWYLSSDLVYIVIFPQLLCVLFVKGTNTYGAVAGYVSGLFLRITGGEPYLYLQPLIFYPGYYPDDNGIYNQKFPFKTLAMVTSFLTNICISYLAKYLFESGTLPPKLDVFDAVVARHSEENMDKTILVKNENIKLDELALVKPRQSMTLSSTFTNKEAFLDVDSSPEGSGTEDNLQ
Protocol: as §2

[5] = Acute toxicity study in rats, single intravenous injection; assay type: in vivo, Wistar rats
Protocol: The acute toxicity of 10a was assessed when administered by a single intravenous injection to rats followed by an observation period of 2 or 15 day (Hameln rds, Modra, Slovak Republic). The study was performed with 4 test groups, including 1 control and 3 dose groups (6.2, 62 and 620 μg∙kg^−1), with 60 males and 60 females Wistar rats divided into two experiment cohorts: Day 2 (40 males and 40 females) and Day 15 (20 males and 20 females). The animals were weighed and allocated to the test groups based on their body weights. The animals were sacrificed in two time periods (day 2 and day 15 after test item administration) and then examined macroscopically and histopathologically. The following parameters were evaluated: mortality, clinical observation, body weights, food consumption, haematology (white blood cells, red blood cells, hemoglobin, hematocrit, mean corpuscular volume, mean corpuscular hemoglobin, platelets, lympohcytes, neutrophils, eosinophils, basophils, monocytes), clinical chemistry (alkaline phosphatase, aspartate aminotransferase, alanine aminotransferase, glucose, cholesterol, triacylglycerols, creatinine, urea, bilirubin, albumin, calcium, phosphorus, sodium, potassium chloride), pathology and histopathology.

α7 nAChR [6] = conditions: [125I]α-bungarotoxin labelled rat cortical membranes; cited from earlier work
α3β4 nAChR = molecular target: α3β4 nAChR; design: method as in PMID 24050653; conditions: rat receptor subtype; cited from earlier work
α7 nAChR [7] = molecular target: α7 nAChR; design: method as in PMID 22281189; conditions: cited from earlier work

O=S1(=O)c2ccc(F)cc2-c2ccc(N3CCN4CCC3CC4)cc21 [Compound 10a, 7-(1,4-Diazabicyclo[3.2.2]nonan-4-yl)-2-fluorodibenzo[b,d]thiophene 5,5-dioxide]
Selectivity (Ki ratio) α7/α3β4 (human α7 nAChR; Ki hα3β4 divided by Ki hα7): 198 | Selectivity (Ki ratio) α7/α4β2 (human α7 nAChR; Ki hα4β2 divided by Ki hα7): 862 | Ki (human α7 nAChR; stably transfected SH-SY5Y cells, [3H]methyllycaconitine, read-out: Affinity (Ki in nM) hα7): 0.6 ± 0.44 nM | Ki (human α4β2 nAChR): 517 ± 375 nM | Ki (human α3β4 nAChR): 119 ± 29 nM | Ki (rat α6β2* nAChR): 589 ± 217 nM | inhibition at 0.1 µM (human 5-HT3 receptor; 0.1 μM concentration of test compound, [3H]GR65630 binding, read-out: 5-HT3 percentage of inhibition): 2% | Ki (human 5-HT3 receptor; recombinant HEK293 cells, [3H]GR65630, estimated from seven concentrations (20 μM–5 nM), read-out: Affinity (Ki in nM) 5-HT3): 440 nM | binding to α1 nAChR (α1 nAChR): no significant binding | binding to SERT [1]: no significant binding | binding to DAT [2]: no significant binding | binding to NET [3]: no significant binding | binding to VMAT [4]: no significant binding | binding to choline transporter (choline transporter): no significant binding | body weights, control vs treated groups ([5]; 6.2, 62 and 620 μg∙kg^−1 single i.v., either gender): No statistically significant differences | clinical observation ([5]; 6.2, 62 and 620 μg∙kg^−1 single i.v., rats): no notable clinical effects | pathological and histopathological parameters ([5]; single i.v., Day 2 or Day 15, rats): did not result in changes | no observed effect level (NOEL) ([5]; single intravenous injection, rats, observation 2 or 15 day): 0.62 mg/kg | Ki (α7 nAChR [6]): 1.4 nM | Ki (α3β4 nAChR): 5000 nM

CCN(CC)CCOc1ccc2c(c1)C(=O)c1cc(OCCN(CC)CC)ccc1-2 [tilorone]
Ki (α7 nAChR [7]): 56 nM
